Source: the supplement of paper PMC10307832

compound: Cn1cnc2c(F)c(Nc3ccc(Br)cc3Cl)c(C(=O)NOCCO)cc21 [Selumetinib] + COc1cc2c(Oc3ccc(NC(=O)C4(C(=O)Nc5ccc(F)cc5)CC4)cc3F)ccnc2cc1OCCCN1CCOCC1 [Foretinib] (partner 0.25 µM); assay: relative viability (nuclei count vs DMSO), 5 days (fraction); higher = more cells survive; details: first compound 0.02 µM
In short: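 Values are medians from duplicate plates. Each reflects relative viability, defined as the nuclei count of treated wells over that of vehicle wells. Lung cancer cell lines in 1536-well plates were pin-tool dosed one day after seeding with one drug alone or with a fixed anchor-drug dose plus five library-drug doses (not always all listed) in √10 steps, then fixed, stained and imaged at 4× after 5 days.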

Going from NCI-H1623 to PC-14, the relative viability rises from 0.729 to 0.97.

Going from NCI-H1666 to EBC-1, the relative viability falls from 0.827 to 0.0932.

First: NCI-H1755
Second: NCI-H2023
The relative viability of the first is higher: 0.874 for the first, 0.709 for the second.

First: EPLC-272H
Second: LCLC-97TM1
The relative viability of the first is lower: 0.593 for the first, 0.898 for the second.

Compared with PC-3 [JPC-3], LOU-NH91 is lower in relative viability: 0.944 for the first, 0.87 for the second.

Going from NCI-H647 to NCI-H23, the relative viability falls from 1.19 to 0.952.

Going from EMC-BAC-2 to NCI-H2126, the relative viability rises from 0.882 to 1.13.

First: Calu-6
Second: NCI-H1734
The relative viability of the first is lower: 0.817 for the first, 0.88 for the second.

First: NCI-H650
Second: LK-2
The relative viability of the first is lower: 1.07 for the first, 1.68 for the second.

Compared with NCI-H2228, NCI-H2342 is higher in relative viability: 0.81 for the first, 0.922 for the second.

First: SK-MES-1
Second: HARA
The relative viability of the first is lower: 0.831 for the first, 0.905 for the second.

Going from COR-L23 to COR-L 105, the relative viability falls from 0.999 to 0.978.

Compared with IA-LM, A549 is lower in relative viability: 0.949 for the first, 0.779 for the second.

Compared with SW 900, NCI-H1299 is higher in relative viability: 0.876 for the first, 1.23 for the second.

Going from NCI-H661 to NCI-H1703, the relative viability falls from 1.12 to 0.438.

First: NCI-H1563
Second: LCLC-103H
The relative viability of the first is higher: 0.879 for the first, 0.744 for the second.

Compared with ABC-1, NCI-H358 is lower in relative viability: 0.906 for the first, 0.43 for the second.

NCI-H727 gave a relative viability of 0.468.

same assay, conditions: first compound 0.06325 µM

Compared with NCI-H1623, PC-14 is higher in relative viability: 0.679 for the first, 0.886 for the second.

Compared with NCI-H1666, EBC-1 is lower in relative viability: 0.839 for the first, 0.0928 for the second.

Going from NCI-H1755 to NCI-H2023, the relative viability rises from 0.807 to 0.811.

First: EPLC-272H
Second: LCLC-97TM1
The relative viability of the first is lower: 0.467 for the first, 0.818 for the second.

Going from PC-3 [JPC-3] to LOU-NH91, the relative viability falls from 0.92 to 0.859.

Compared with NCI-H647, NCI-H23 is lower in relative viability: 1.21 for the first, 0.916 for the second.

First: EMC-BAC-2
Second: NCI-H2126
The relative viability of the first is lower: 0.972 for the first, 0.993 for the second.

First: Calu-6
Second: NCI-H1734
The relative viability of the first is lower: 0.702 for the first, 0.843 for the second.

Going from NCI-H650 to LK-2, the relative viability rises from 1.18 to 1.51.

Compared with NCI-H2228, NCI-H2342 is higher in relative viability: 0.802 for the first, 1.09 for the second.

Going from SK-MES-1 to HARA, the relative viability falls from 0.818 to 0.726.

Compared with COR-L23, COR-L 105 is higher in relative viability: 1.01 for the first, 1.1 for the second.

Compared with IA-LM, A549 is lower in relative viability: 0.837 for the first, 0.581 for the second.

First: SW 900
Second: NCI-H1299
The relative viability of the first is lower: 0.78 for the first, 1.08 for the second.

First: NCI-H661
Second: NCI-H1703
The relative viability of the first is higher: 0.979 for the first, 0.318 for the second.

First: NCI-H1563
Second: LCLC-103H
The relative viability of the first is higher: 0.955 for the first, 0.64 for the second.

Compared with ABC-1, NCI-H358 is lower in relative viability: 0.882 for the first, 0.331 for the second.

Work on NCI-H727 yielded a relative viability of 0.434.

same assay, conditions: first compound 0.2 µM

Going from NCI-H1623 to PC-14, the relative viability rises from 0.614 to 0.819.

First: NCI-H1666
Second: EBC-1
The relative viability of the first is higher: 0.791 for the first, 0.114 for the second.

Compared with NCI-H1755, NCI-H2023 is lower in relative viability: 0.824 for the first, 0.6 for the second.

Going from EPLC-272H to LCLC-97TM1, the relative viability rises from 0.367 to 0.585.

First: PC-3 [JPC-3]
Second: LOU-NH91
The relative viability of the first is higher: 0.922 for the first, 0.834 for the second.

Going from NCI-H647 to NCI-H23, the relative viability falls from 0.842 to 0.654.

Compared with EMC-BAC-2, NCI-H2126 is higher in relative viability: 0.85 for the first, 1.05 for the second.

Compared with Calu-6, NCI-H1734 is higher in relative viability: 0.515 for the first, 0.672 for the second.

Compared with NCI-H650, LK-2 is lower in relative viability: 1.21 for the first, 0.968 for the second.

Going from NCI-H2228 to NCI-H2342, the relative viability rises from 0.807 to 0.961.

Compared with SK-MES-1, HARA is higher in relative viability: 0.534 for the first, 0.71 for the second.

Going from COR-L23 to COR-L 105, the relative viability falls from 0.933 to 0.846.

Compared with IA-LM, A549 is lower in relative viability: 0.576 for the first, 0.546 for the second.

Compared with SW 900, NCI-H1299 is higher in relative viability: 0.783 for the first, 1.09 for the second.

Going from NCI-H661 to NCI-H1703, the relative viability falls from 1.02 to 0.369.

Going from NCI-H1563 to LCLC-103H, the relative viability falls from 0.903 to 0.646.

Compared with ABC-1, NCI-H358 is lower in relative viability: 0.951 for the first, 0.272 for the second.

NCI-H727 was tested, and the relative viability was 0.329.

same assay, conditions: first compound 0.6325 µM

Going from NCI-H1623 to PC-14, the relative viability rises from 0.632 to 0.881.

Going from NCI-H1666 to EBC-1, the relative viability falls from 0.734 to 0.109.

Going from NCI-H1755 to NCI-H2023, the relative viability falls from 0.847 to 0.572.

Going from EPLC-272H to LCLC-97TM1, the relative viability rises from 0.333 to 0.525.

Going from PC-3 [JPC-3] to LOU-NH91, the relative viability rises from 0.713 to 0.738.

First: NCI-H647
Second: NCI-H23
The relative viability of the first is higher: 1.02 for the first, 0.612 for the second.

Going from EMC-BAC-2 to NCI-H2126, the relative viability rises from 0.875 to 0.933.

Going from Calu-6 to NCI-H1734, the relative viability rises from 0.383 to 0.611.

Compared with NCI-H650, LK-2 is higher in relative viability: 1.17 for the first, 1.23 for the second.

Compared with NCI-H2228, NCI-H2342 is higher in relative viability: 0.623 for the first, 0.981 for the second.

Compared with SK-MES-1, HARA is higher in relative viability: 0.491 for the first, 0.592 for the second.
